Laboratory results published in PubChem BioAssay AID1208 (EPA DSSTox, 2008).
Activity calls are given as the source filed them.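 The calls were made as follows: active = at least one rat sex group has a carcinogenic potency value and tumor site recorded; inconclusive = only rat studies were judged inadequate by the national testing program; inactive = no potency or tumor site, with negative rat experiments.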

System: rat chronic carcinogenicity bioassay, TD50
Experiment: DSSTox (CPDBAS) Carcinogenic Potency Database Summary Rat Bioassay Results
Details: for Potency: stronger effect = lower value
From the text: The Carcinogenic Potency Database (CPDB) is a unique and widely used international resource of the results of over 6500 chronic, long-term animal cancer tests on over 1500 chemical substances. The CPDB provides easy access to the bioassay literature, with qualitative and quantitative analyses of both positive and negative experiments that have been published over the past 50 years in the general literature and by the National Cancer Institute/National Toxicology Program. The CPDB standardizes the diverse literature of cancer bioassays that vary widely in protocol, histopathological examination and nomenclature, and in the published author's choices of what information to provide in their papers. Results are reported in the CPDB for tests in rats, mice, hamsters, dogs, and nonhuman primates, and are based on the most positive result among all experiments for each sex-species. The DSSTox CPDBAS (all species) file incorporates data from the CPDB Summary Tables for the full list of over 1500 chemical substances tested in at least one species. Summary bioassay results for Rat (TD50, tumor sites, male, female, both sexes) are provided in the CPDB Summary Tables and the DSSTox CPDBAS file for over 1200 chemical substances.
TD50 is a standardized quantitative measure of carcinogenic potency (analogous to an LD50) and is reported in the CPDB Summary Table for each species. Activity Score for actives is computed by mapping of LOG10 (1/TD50_Rat_mmol) activity values spanning range [MIN, MAX] onto Integer 1-100 Activity Score range, where 100 is highest potency and 1 is lowest: Activity Score = 100 * INTEGER[(log10(1/Activity) - MIN)/(MAX - MIN)]. If activity is reported but no TD50_Rat_mmol value is computed, such as for a mixture, the Activity Score is assigned the activity value "50". […] Target sites are reported for each sex-species group with a positive result in the CPDB on the basis of a positive author's opinion for the particular site, using all results from both the general literature and NCI/NTP bioassays. If a chemical has two or more target sites listed, the results may be from different experiments, and a single site may be a target organ in more than one experiment, as well. Blank entry in TargetSites field indicates no results reported.

[1] = TD50_Rat_Note: no positive results, TargetSites_Rat_Female: no positive results
[2] = TargetSites_Rat_Female: no positive results
[3] = TD50_Rat_Note: positive test results only by intraperitoneal or intravenous injection
[4] = TD50_Rat_Note: no positive results
[5] = TD50_Rat_Note: harmonic mean of TD50 includes a value for upper 99% confidence limit from study with 100% tumor incidence but no lifeta
[6] = TD50_Rat_Note: TD50 is harmonic mean of more than one positive test, TargetSites_Rat_Female: liver
[7] = TD50_Rat_Note: TD50 is harmonic mean of more than one positive test

For `Oc1c(Cl)c(Cl)c(Cl)c(Cl)c1Cl`, the outcome [1] was “inactive; no positive results”, the Potency (TargetSites_Rat_Female: liver) was 13.1 mg/kg/day and the Potency [2] was 59 mg/kg/day.

Molecule `CN(C)CCOC(C)(c1ccccc1)c1ccccn1` (stereo unspecified) has a Potency [2] of 1610 mg/kg/day.

With `O=c1[nH]cc(F)c(=O)[nH]1` the outcome [1] was “inactive; no positive results”.

`O=NN1CCCN(N=O)C1` was tested, and the Potency [3] was 0.166 mg/kg/day.

In the case of `NS(=O)(=O)c1cc2c(cc1Cl)NCNS2(=O)=O`, the outcome [1] is reported as “inactive; no positive results”.

`O=NN(CCO)CCO` showed a Potency (TD50_Rat_Note: TD50 is harmonic mean of more than one positive test, greater than ten-fold variation among TD50 values for positive res, TargetSites_Rat_Female: esophagus, kidney, liver, nasal cavity) of 3.17 mg/kg/day.

In the case of `c1ccc2c(c1)Oc1ccccc1O2`, the outcome [1] is reported as “inactive; no positive results”.

With `CCCCCCCCS(=O)C(C)Cc1ccc2c(c1)OCO2` (stereo unspecified) the outcome [1] was “inactive; no positive results”.

For `Cc1cccc(C)c1N`, the outcome [4] was “inactive; no positive results”.

`C=CC1CC=CCC1` (stereo unspecified) was tested, and the outcome (TD50_Rat_Note: only experiment is NCI/NTP bioassay inadequate, TargetSites_Rat_Female: NTP bioassay inadequate) was “ntp bioassay inadequate”.

`O=S(=O)([O-])[O-].[O]=[V+2]` was tested, and the outcome [4] was “inactive; no positive results”.

For `C=CC=O`, the outcome [1] was “inactive; no positive results”.

With `O=NN1CCCC1c1cccnc1` (stereo unspecified) the Potency was 0.0957 mg/kg/day.

`CCN(Cc1cccc(S(=O)(=O)O)c1)c1ccc(C(=C2C=CC(=[N+](CC)Cc3cccc(S(=O)(=O)[O-])c3)C=C2)c2ccccc2)cc1` was tested, and the Potency (TD50_Rat_Note: TD50 is harmonic mean of more than one positive test, TargetSites_Rat_Female: liver, TargetSites_Rat_BothSexes: hematopoietic system) was 6060 mg/kg/day.

`CCCN=[N+]([O-])CCC` gave a Potency [5] of 0.000241 mg/kg/day.

`Nc1ccc(-c2ccc(N)c(N)c2)cc1N` gave a Potency of 395 mg/kg/day.

For `Oc1ccccc1O`, the Potency (TD50_Rat_Note: TD50 is harmonic mean of more than one positive test, harmonic mean of TD50 includes a value for upper 99% confidence li, TargetSites_Rat_Female: stomach) was 71.5 mg/kg/day.

For `CC(C(=O)O)c1cccc(C(=O)c2ccccc2)c1` (stereo unspecified), the outcome [4] was “inactive; no positive results”.

With `NCCNc1cccc2ccccc12` the outcome [1] was “inactive; no positive results”.

`CCCCCCCCCCCCCCN(C)N=O` was tested, and the Potency [5] was 1.65 mg/kg/day.

In the case of `O=S1(=O)CC=CC1`, the outcome [1] is reported as “inactive; no positive results”.

Work on `Nc1ccc(N)c2c1C(=O)c1c(N)ccc(N)c1C2=O` yielded a Potency (TD50_Rat_Note: TD50 is harmonic mean of more than one positive test, TargetSites_Rat_Female: urinary bladder) of 156 mg/kg/day.

Work on `c1ccc(OCC2CO2)cc1` (stereo unspecified) yielded a Potency (TD50_Rat_Note: TD50 is harmonic mean of more than one positive test, TargetSites_Rat_Female: nasal cavity) of 44 mg/kg/day.

Work on `Clc1cccc(-c2cc(Cl)cc(Cl)c2)c1` yielded a Potency (TD50_Rat_Note: TD50_Rat_mmol was not calculated for this mixture, but Activiity Score is assigned value of 50 to indicate active, TargetSites_Rat_Female: liver) of 53.9 mg/kg/day.

`CC1=NN(c2ccccc2)C(=O)C1` was tested, and the outcome [1] was “inactive; no positive results”.

Work on `Cc1cc(N=Nc2ccccc2C)ccc1N` yielded a Potency [6] of 4.04 mg/kg/day.

Work on `O[C@@H]([C@H](O)[C@@H](O)CBr)[C@@H](O)CBr` yielded a Potency (TD50_Rat_Note: positive test results only by intraperitoneal or intravenous injection, TD50 is harmonic mean of more than one positive, TargetSites_Rat_Female: mammary gland, peritoneal cavity) of 27.6 mg/kg/day.

With `Nc1ccc2ccccc2c1` the Potency (TargetSites_Rat_Female: urinary bladder, TargetSites_Rat_BothSexes: no positive results) was 61.6 mg/kg/day.

`Nc1nc(=S)c2ncn([C@H]3C[C@H](O)[C@@H](CO)O3)c2[nH]1` was tested, and the Potency (TD50_Rat_Note: positive test results only by intraperitoneal or intravenous injection, TargetSites_Rat_Female: ear Zymbals gland) was 2.1 mg/kg/day.

In the case of `Nc1ccc(N)c(Cl)c1`, the outcome [1] is reported as “inactive; no positive results”.

With `O=NN1CCC(O)C1` (stereo unspecified) the Potency (TargetSites_Rat_BothSexes: all tumor bearing animals) was 7.65 mg/kg/day.

Work on `CCN(N=O)C(=O)NCC(C)=O` yielded a Potency (TD50_Rat_Note: TD50 is harmonic mean of more than one positive test, harmonic mean of TD50 includes a value for upper 99% confidence li, TargetSites_Rat_Female: large intestine, lung, mammary gland, nervous system, skin, thyroid gland, uterus) of 0.181 mg/kg/day.

`O=C1c2cccc(O)c2C(=O)c2c(O)cccc21` showed a Potency of 245 mg/kg/day.

Molecule `CN(N=O)c1ccc(N=O)cc1` has a Potency (TD50_Rat_Note: positive test results only by intraperitoneal or intravenous injection, no positive results are statistically significan) of 1.3 mg/kg/day.

In the case of `O=S1OCC2C(CO1)C1(Cl)C(Cl)=C(Cl)C2(Cl)C1(Cl)Cl` (stereo unspecified), the outcome [1] is reported as “inactive; no positive results”.

`O=C1C=C(N2CC2)C(=O)C(N2CC2)=C1N1CC1` was tested, and the Potency [3] was 0.00504 mg/kg/day.

`C[C@H]1C(=O)O[C@@H]2CCN3CC=C(COC(=O)[C@](C)(O)[C@]1(C)O)[C@H]23` showed a Potency [7] of 0.94 mg/kg/day.

`CC1=C2C(=CO[C@@H](C)[C@@H]2C)C(=O)C(C(=O)O)=C1O` gave a Potency (TD50_Rat_Note: TD50 value is overestimated as upper 99% confidence limit from study with 100% tumor incidence but no lifetable, TD50 is) of 7.48 mg/kg/day.

In the case of `CC#N`, the outcome [1] is reported as “inactive; no positive results”.

`ClC1(Cl)C2(Cl)C3C4(Cl)C1(Cl)C1(Cl)C4(Cl)C(Cl)(Cl)C3(Cl)C21Cl` (stereo unspecified) was tested, and the Potency was 1.46 mg/kg/day.

In the case of `C=Cc1ccccc1`, the Potency (TargetSites_Rat_Female: mammary gland) is reported as 23.3 mg/kg/day.

In the case of `Cc1c(N)cccc1N`, the outcome [1] is reported as “inactive; no positive results”.

`OC(Cn1cncn1)(Cn1cncn1)c1ccc(F)cc1F` gave a Potency [2] of 80.7 mg/kg/day.

`O=C1NC(c2ccc([N+](=O)[O-])s2)Nc2ccccc21` (stereo unspecified) was tested, and the Potency (TargetSites_Rat_Female: all tumor bearing animals) was 1.53 mg/kg/day.

In the case of `Nc1ncn[nH]1`, the Potency (TD50_Rat_Note: TD50 is harmonic mean of more than one positive test, TargetSites_Rat_Female: pituitary gland, thyroid gland) is reported as 9.94 mg/kg/day.

Work on `COC(=O)[C@H]1[C@H]2C[C@@H]3c4[nH]c5cc(OC)ccc5c4CCN3C[C@H]2C[C@@H](OC(=O)c2cc(OC)c(OC)c(OC)c2)[C@@H]1OC` yielded a Potency [2] of 0.306 mg/kg/day.

In the case of `N#CSCc1ccccc1`, the outcome [4] is reported as “inactive; no positive results”.

In the case of `OC(c1ccc(Cl)cc1)(c1ccc(Cl)cc1)C(Cl)(Cl)Cl`, the outcome [1] is reported as “inactive; no positive results”.

Molecule `COc1ccc(C)cc1N` has a Potency (TD50_Rat_Note: TD50 is harmonic mean of more than one positive test, TargetSites_Rat_Female: nasal cavity, urinary bladder) of 98 mg/kg/day.

For `CNC(=S)NC`, the outcome [4] was “inactive; no positive results”.

Molecule `c1ccc(N=Nc2ccccc2)cc1` has a Potency (TD50_Rat_Note: TD50 is harmonic mean of more than one positive test, TargetSites_Rat_Female: spleen) of 24.1 mg/kg/day.

With `O=C(O)c1cc(N=Nc2ccc(S(=O)(=O)Nc3ccccn3)cc2)ccc1O` the Potency (TD50_Rat_Note: TD50 is harmonic mean of more than one positive test, TargetSites_Rat_Female: kidney, urinary bladder) was 1590 mg/kg/day.

For `COc1ccc([N+](=O)[O-])cc1N=Nc1c(O)c(C(=O)Nc2cccc([N+](=O)[O-])c2)cc2ccccc12`, the outcome [1] was “inactive; no positive results”.

`Oc1ccccc1` was tested, and the outcome [1] was “inactive; no positive results”.

With `CCOC(=O)C1OC1(C)c1ccccc1` (stereo unspecified) the outcome [1] was “inactive; no positive results”.

In the case of `C=CCOc1ccccc1OCC(O)CNC(C)C` (stereo unspecified), the outcome [1] is reported as “inactive; no positive results”.

`CNc1ccc(N(CCO)CCO)cc1[N+](=O)[O-]` was tested, and the Potency (TargetSites_Rat_Female: lung) was 702 mg/kg/day.

For `C1CNCCN1`, the outcome [1] was “inactive; no positive results”.

`Cc1cccc(N=Nc2ccc(N(C)C)cc2)c1` was tested, and the Potency [7] was 3.28 mg/kg/day.

With `Clc1nc(Cl)nc(Nc2ccccc2Cl)n1` the outcome [1] was “inactive; no positive results”.

In the case of `C[C@]12CC[C@@H]3c4ccc(OC(=O)Cc5ccc(N(CCCl)CCCl)cc5)cc4CC[C@H]3[C@@H]1CC[C@@H]2OC(=O)Cc1ccc(N(CCCl)CCCl)cc1`, the outcome [1] is reported as “inactive; no positive results”.

`C=CCN(N=O)C(N)=O` showed a Potency (TD50_Rat_Note: TD50 is harmonic mean of more than one positive test, TargetSites_Rat_Female: mammary gland, stomach, uterus) of 0.341 mg/kg/day.

Molecule `CC1(C)C(=O)Nc2ccc(C3=NNC(=O)CC3)cc21` has a Potency (TD50_Rat_Note: TD50 is harmonic mean of more than one positive test, TargetSites_Rat_Female: adrenal gland) of 2.01 mg/kg/day.

With `CCCCCCN(N=O)C(N)=O` the Potency (TD50_Rat_Note: TD50 is harmonic mean of more than one positive test, harmonic mean of TD50 includes a value for upper 99% confidence li, TargetSites_Rat_Female: lung, mammary gland, stomach, uterus) was 0.513 mg/kg/day.

For `Cn1cc[nH]c1=S`, the Potency (TD50_Rat_Note: TD50 is harmonic mean of more than one positive test, TargetSites_Rat_Female: thyroid gland) was 1.14 mg/kg/day.

`Cc1cc(N=Nc2c(O)ccc3ccccc23)c(S(=O)(=O)O)cc1Cl` was tested, and the Potency [2] was 146 mg/kg/day.

Work on `NC(=O)OCC(COC(N)=O)c1ccccc1` yielded a Potency [6] of 1090 mg/kg/day.

`CC(C)=CCC/C(C)=C/C=O` was tested, and the outcome [1] was “inactive; no positive results”.

For `CCOC(=O)CC(SP(=S)(OC)OC)C(=O)OCC` (stereo unspecified), the outcome [1] was “inactive; no positive results”.

`Cc1ccccc1S(N)(=O)=O` showed a Potency (TargetSites_Rat_BothSexes: urinary bladder) of 3960 mg/kg/day.

`CCOCCc1c(-c2ccccc2)nc(N)n2ncnc12` gave a Potency (TD50_Rat_Note: TD50 is harmonic mean of more than one positive test, TargetSites_Rat_Female: liver, mammary gland) of 548 mg/kg/day.

`CCCCCN(N=O)C(=N)N[N+](=O)[O-]` was tested, and the outcome [4] was “inactive; no positive results”.

For `CC(C)CN(N=O)C(N)=O`, the Potency (TargetSites_Rat_Female: small intestine) was 4.73 mg/kg/day.

Molecule `CC(=O)CN(CCO)N=O` has a Potency (TargetSites_Rat_Female: liver) of 1.8 mg/kg/day.
